How the values were obtained:
Aqueous solubility = format: physicochemical
[1] = Plasma concentration after administration to an animal; format: in vivo
human TRPV1 = human TRPV1 (Homo sapiens (Human), UniProt Q8NER1); assay: Capsaicin-based assay, Protocol 2 (hCAP-CHO); format: cell-based; details: TRPV1/CHO cells, 100 nM capsaicin; mean ± SEM; read-out: TRPV1 IC50 Potency Human Capsaicin CHO (hCAP-CHO)
Description: The TRPV1/CHO cell line was generated as described below. […] The resulting PCR products were purified from agarose gels using Gel Band Purification Kit (GE Healthcare Bioscience) and were subcloned into pCR-Blunt vector (Invitrogen). The cloned cDNA was fully sequenced using a fluorescent dye-terminator reagent (BigDye Terminator ver3.1 Cycle Sequencing Kit, Applied Biosystems) and ABI Prism 3100 genetic analyzer (Applied Biosystems). The pCR-Blunt vector containing the hTRPV1 cDNA was subjected to restriction digestion with EcoR1. The restriction fragment was subcloned into expression vector pcDNA3.1(-) (Invitrogen) and named pcDNA3.1(-)-hVR1 plasmid. The sequence of the cDNA encoding TRPV1 is available at GenBank accession number AJ277028. […] The cells were transfected with the pcDNA3.1(-)-hVR1 plasmid using FuGENE6 (Roche) according to the manufacturer's protocol. 24 hr after transfection, neomycin-resistant cells were selected using 1 mg/mL G418 (Nacalai Tesque). […] The cells expressing hTRPV1 were cultured in the growth medium supplemented with 1 mg/mL G418. […] Subsequently, the cells were loaded by incubation in 0.1 mL of wash buffer containing Fluo-4 at 3 μM final concentration. After 1 hour, the cells were washed twice with 0.2 mL wash buffer and resuspended in 0.1 mL wash buffer. The plates were then transferred to a Fluorescence Imaging Plate Reader (Molecular Devices). Fluorescence intensity was monitored for 15 seconds to establish a baseline. […] The final concentration of the compound was adjusted to range from 100 μM to 1.5625 μM. […] Data were collected over the entire time course and analyzed using Excel and the curve-fitting formula GraphPad Prism.

TRPV1 receptor = TRPV1 receptor (Rattus norvegicus (Rat), UniProt O35433); assay: Capsaicin-induced eye wipe test; format: in vivo; details: for number of capsaicin-induced eye wipes: pre-administration value 24
Procedure: Each experiment uses rats weighing between 200-260 g at the start of the experiment. The rats are group-housed and have free access to food and water at all times, except prior to oral administration of a compound of formula I when food is removed for 16 hours before dosing. A control group acts as a comparison to rats treated with a compound of formula I. The control group is administered the carrier for the compound of formula I. The volume of carrier administered to the control group is the same as the volume of carrier and compound of formula I administered to the test group.
To assess the effect of compounds of formula I on TRPV1 receptor-mediated pain, the capsaicin-induced eye wipe test is used (N. R. Gavva et al., “AMG 9810 [(E)-3-(4-t-Butylphenyl)-N-(2,3-dihydrobenzo[b][1,4]dioxin-6-yl)acrylamide], a Novel Vanilloid Receptor 1 (TRPV1) Antagonist with Antihyperalgesic Properties”, J. Pharmacol. Exp. Ther. 313:474-484 (2005)). The eye wipe test is a reliable high-throughput test of the effect of TRPV1 antagonists. Rats are given a single injection of 1, 3, 10 or 30 mg/kg of either a compound of formula I; 30 mg/kg of a control selected from Celebrex, indomethacin or naproxen; or carrier. At 1, 3 or 5 hours after drug administration, […] of a 100 μM capsaicin solution (in 10% EtOH/PBS) is instilled in one eye of each animal with a pipette. The number of forelimb movements (touching or wiping of the capsaicin-treated eye) are counted during a 2 minute period following instillation of capsaicin into the eye.

Sequence of human TRPV1 (Q8NER1 whole entry, the tested form may be a part): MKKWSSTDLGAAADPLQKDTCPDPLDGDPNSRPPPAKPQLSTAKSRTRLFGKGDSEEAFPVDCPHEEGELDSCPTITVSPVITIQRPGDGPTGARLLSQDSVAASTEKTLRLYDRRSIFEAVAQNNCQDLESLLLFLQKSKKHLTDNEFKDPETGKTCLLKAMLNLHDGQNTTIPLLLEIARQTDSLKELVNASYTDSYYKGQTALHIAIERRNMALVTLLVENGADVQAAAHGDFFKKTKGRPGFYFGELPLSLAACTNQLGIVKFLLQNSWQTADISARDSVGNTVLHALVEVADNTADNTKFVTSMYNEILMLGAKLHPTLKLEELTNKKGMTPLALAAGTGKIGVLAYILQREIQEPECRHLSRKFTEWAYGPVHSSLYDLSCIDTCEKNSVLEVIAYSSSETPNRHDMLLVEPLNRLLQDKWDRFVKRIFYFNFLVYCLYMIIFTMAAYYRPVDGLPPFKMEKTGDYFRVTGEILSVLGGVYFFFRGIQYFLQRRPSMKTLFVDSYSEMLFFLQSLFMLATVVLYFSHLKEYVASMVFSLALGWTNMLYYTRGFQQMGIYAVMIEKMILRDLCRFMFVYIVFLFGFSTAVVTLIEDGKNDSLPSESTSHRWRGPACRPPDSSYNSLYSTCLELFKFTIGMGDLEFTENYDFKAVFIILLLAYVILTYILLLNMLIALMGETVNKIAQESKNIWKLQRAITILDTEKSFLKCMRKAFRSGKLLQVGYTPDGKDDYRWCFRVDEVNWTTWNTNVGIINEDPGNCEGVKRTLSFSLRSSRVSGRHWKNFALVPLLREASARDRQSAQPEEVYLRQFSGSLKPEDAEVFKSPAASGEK
Sequence of TRPV1 receptor (O35433 whole entry): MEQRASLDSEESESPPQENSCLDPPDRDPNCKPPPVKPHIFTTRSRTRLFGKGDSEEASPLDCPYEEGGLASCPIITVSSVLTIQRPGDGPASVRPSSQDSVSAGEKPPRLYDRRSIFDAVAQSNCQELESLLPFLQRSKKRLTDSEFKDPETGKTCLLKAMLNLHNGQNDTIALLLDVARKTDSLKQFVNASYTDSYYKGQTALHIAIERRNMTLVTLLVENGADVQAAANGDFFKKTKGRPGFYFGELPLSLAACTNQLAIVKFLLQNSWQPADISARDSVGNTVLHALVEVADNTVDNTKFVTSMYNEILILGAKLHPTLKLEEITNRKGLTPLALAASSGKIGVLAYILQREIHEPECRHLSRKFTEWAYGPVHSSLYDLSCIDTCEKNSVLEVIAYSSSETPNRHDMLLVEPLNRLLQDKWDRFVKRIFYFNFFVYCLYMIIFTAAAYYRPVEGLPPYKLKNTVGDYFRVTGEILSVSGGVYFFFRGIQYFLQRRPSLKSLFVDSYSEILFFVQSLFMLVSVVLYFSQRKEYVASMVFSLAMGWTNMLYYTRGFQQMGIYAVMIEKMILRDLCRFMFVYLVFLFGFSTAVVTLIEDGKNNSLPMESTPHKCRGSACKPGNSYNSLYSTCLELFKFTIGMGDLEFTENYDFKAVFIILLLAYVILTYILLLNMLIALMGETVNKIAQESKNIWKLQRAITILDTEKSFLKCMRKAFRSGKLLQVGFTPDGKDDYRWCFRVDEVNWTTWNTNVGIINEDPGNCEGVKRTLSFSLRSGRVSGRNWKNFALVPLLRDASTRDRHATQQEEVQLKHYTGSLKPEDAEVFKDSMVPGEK

SMILES	aqueous solubility at pH 1.2 (Aqueous solubility) [μM]	aqueous solubility at pH 6.8 (Aqueous solubility) [μM]	further results
O=C(Nc1ccc(C(F)(F)F)cc1)N1CC=C(c2ncccc2Cl)CC1 [Compound 200]	< 0.1	< 0.1	aqueous solubility at pH 6.8 (in words) (Aqueous solubility): insoluble; time to maximum plasma concentration after administration ([1]; animal plasma): 3.1 h
O=C(Nc1ccc(C(F)(F)F)cc1)N1CCC(F)(c2ncccc2Cl)CC1 [Compound 203]	–	–	aqueous solubility at pH 6.8 (in words) (Aqueous solubility): insoluble
O=C(Nc1ccc(C(F)(F)F)cc1)N1CCC(F)(c2ncccc2F)CC1 [Compound 207]	–	–	aqueous solubility at pH 6.8 (in words) (Aqueous solubility): insoluble
O=C(Nc1ccc(C(F)(F)F)cc1)N1CC=C(c2ncccc2F)CC1 [Compound 208]	–	–	aqueous solubility at pH 6.8 (in words) (Aqueous solubility): insoluble
O=C(Nc1ccc(C(F)(F)F)c(F)c1)N1CC=C(c2ncccc2Cl)CC1 [Compound 213]	39.6	0.8	–
O=C(Nc1ccc(OC(F)(F)F)cc1)N1CC=C(c2ncccc2Cl)CC1 [Compound 214]	> 50	1.8	–
O=C(Nc1ccc(C(F)(F)F)c(Cl)c1)N1CC=C(c2ncccc2F)CC1 [Compound 215]	9.6	0.6	–
O=C1C=C(c2ncc([C@H](O)CO)cc2Cl)CCN1C(=O)Nc1ccc(C(F)(F)F)cn1 [Compound C6]	–	–	IC50 (human TRPV1): > 25000 nM
O=C(Nc1ccc(OC(F)(F)F)c(-c2ccccc2)c1)N1CC=C(c2ncc(CO)cc2Cl)CC1 [Compound D3]	–	–	IC50 (human TRPV1): 565 ± 58.6 nM
CC(C)(C)c1ccc(NC(=O)N2CC=C(c3ncc([C@@H](O)CO)cc3Cl)CC2)cc1 [Compound E1]	–	–	IC50 (human TRPV1): 18.5 ± 4.9 nM
CCOC(=O)c1cnc(C2=CCN(C(=O)Nc3ccc(C(F)(F)F)cc3)CC2)c(Cl)c1 [Compound F2]	1.0	3.0	–
COC(=O)Cc1cnc(C2=CCN(C(=O)Nc3ccc(C(F)(F)F)cc3)CC2)c(Cl)c1 [Compound F6]	> 50	9.2	–
O=C(O)Cc1cnc(C2=CCN(C(=O)Nc3ccc(C(F)(F)F)cc3)CC2)c(Cl)c1 [Compound G6]	> 50	> 50	–
CN(C)Cc1cnc(C2=CCN(C(=O)Nc3ccc(C(F)(F)F)cc3)CC2)c(Cl)c1 [Compound H6]	> 50	> 50	–
CC(C)S(=O)(=O)c1ccc(NC(=O)N2CC=C(c3ncc(CO)cc3Cl)CC2)cc1 [Compound K3]	–	–	IC50 (human TRPV1): > 10000 nM
O=C(O)c1cnc(C2=CCN(C(=O)Nc3ccc(C(F)(F)F)cc3)CC2)c(Cl)c1 [Compound M5]	–	–	IC50 (human TRPV1): > 25000 nM
O=C(Nc1ccc(C(F)(F)F)cc1)N1CCC(F)(c2ncc([C@H](O)CO)cc2Cl)CC1 [Compound N1, (S)-4-(3-chloro-5-(1,2-dihydroxyethyl)pyridin-2-yl)-4-fluoro-N-(4-(trifluoromethyl)phenyl)piperidine-1-carboxamide]	> 50	28.0	decrease of eye wipes relative to pre-administration value (TRPV1 receptor; 1 hour after administration): 87.5%; number of capsaicin-induced eye wipes (TRPV1 receptor; 1 hour after administration): 3; decrease of eye wipes relative to pre-administration value (TRPV1 receptor; 3 hours after administration): 96%; number of capsaicin-induced eye wipes (TRPV1 receptor; 3 hours after administration): 1; decrease of eye wipes relative to pre-administration value (TRPV1 receptor; 5 hours after administration): 92%; number of capsaicin-induced eye wipes (TRPV1 receptor; 5 hours after administration): 2
O=C(Nc1ccc(C(F)(F)F)c(Cl)c1)N1CCC(F)(c2ncc([C@@H](O)CO)cc2F)CC1 [Compound P5]	–	–	IC50 (human TRPV1): 49.5 nM
O=C(Nc1ccc(C(F)(F)F)c(Cl)c1)N1CCC(F)(c2ncc([C@H](O)CO)cc2F)CC1 [Compound Q3]	–	–	IC50 (human TRPV1): 14.3 ± 1.3 nM

Continued, in another order:

aqueous solubility at pH 1.2 (Aqueous solubility) [μM]	aqueous solubility at pH 6.8 (Aqueous solubility) [μM]	SMILES	further results
9.3	1.0	O=C(Nc1ccc(C(F)(F)F)c(F)c1)N1CCC(F)(c2ncccc2Cl)CC1 [Compound 209]	–
2.0	0.4	O=C(Nc1ccc(S(=O)(=O)C(F)(F)F)cc1)N1CCC(F)(c2ncccc2Cl)CC1 [Compound 210]	–
1.3	0.4	O=C(Nc1ccc(OC(F)(F)F)cc1)N1CCC(F)(c2ncccc2Cl)CC1 [Compound 211]	–
10.3	1.9	O=C(Nc1ccc(C(F)(F)F)c(F)c1)N1CCC(F)(c2ncccc2F)CC1 [Compound 212]	–
> 50	15.7	O=C(Nc1ccc(OC(F)(F)F)cc1)N1CCC(F)(c2ncc([C@H](O)CO)cc2Cl)CC1 [Compound C1]	–
> 50	> 50	O=C(Nc1ccc(OC(F)(F)F)cc1)N1CC=C(c2ncc([C@H](O)CO)cc2Cl)CC1 [Compound E2]	–
> 50	22.6	O=C(Nc1ccc(C(F)(F)F)c(F)c1)N1CCC(F)(c2ncc([C@H](O)CO)cc2Cl)CC1 [Compound F1]	–
> 50	38.2	CC(O)c1cnc(C2=CCN(C(=O)Nc3ccc(C(F)(F)F)cc3)CC2)c(Cl)c1 (centres unmarked) [Compound G2]	–
> 50	> 50	O=C(Nc1ccc(S(=O)(=O)C(F)(F)F)cc1)N1CCC(F)(c2ncc([C@H](O)CO)cc2Cl)CC1 [Compound H1]	–
> 50	> 50	O=C(Nc1ccc(C(F)(F)F)cc1)N1CC=C(c2ncc(CO)cc2Cl)CC1 [Compound J2]	–
> 50	> 50	O=C(Nc1ccc(C(F)(F)F)cc1)N1CCC(F)(c2ncc([C@H](O)CO)cc2F)CC1 [Compound N6]	–
> 50	> 50	O=C(Nc1ccc(C(F)(F)F)c(F)c1)N1CC=C(c2ncc([C@H](O)CO)cc2Cl)CC1 [Compound S1, (S)-3-Chloro-5-(1,2-dihydroxy-ethyl)-3′,6′-dihydro-2′H-[2,4]bipyridinyl-1′-carboxylic acid (3-fluoro-4-trifluoromethyl-phenyl)amide]	–
> 50	> 50	O=C(Nc1ccc(C(F)(F)F)cc1)N1CC=C(c2ncc([C@H](O)CO)cc2F)CC1 [Compound U1]	–
> 50	26.4	O=C(Nc1ccc(C(F)(F)F)c(Cl)c1)N1CC=C(c2ncc([C@H](O)CO)cc2F)CC1 [Compound U3]	–
> 50	17.4	O=C(Nc1ccc(C(F)(F)F)c(F)c1)N1CCC(F)(c2ncc([C@H](O)CO)cc2F)CC1 [Compound Y3]	–
> 50	> 50	O=C(Nc1ccc(C(F)(F)F)cc1)N1CC=C(c2ncc([C@H](O)CO)cc2Cl)CC1 [Compound Z1, (S)-3-Chloro-5-(1,2-dihydroxy-ethyl)-3′,6′-dihydro-2′H-[2,4]bipyridinyl-1′-carboxylic acid (4-trifluoromethyl-phenyl)amide]	time to maximum plasma concentration after administration ([1]; animal plasma): 2.5 h; maximum plasma concentration relative to the maximum for compound 200 ([1]; animal plasma, for a given dose): 2.5 times; plasma concentration up to 24 h compared with compound 200 ([1]; up to 24 h): consistently greater
